Experimental data published in patent US20230124862A1, “BISMUTH THIOL COMPOUNDS AND COMPOSITIONS AND METHODS OF TREATING MICROBIAL CO-INFECTIONS” (Microbion Corporation, priority 2020, published 2023).
≈ marks a conversion by molar mass, not a printed value. Where two headings read alike, the source gives them in different places. Blank lines part the entries; values can stand above or below the compound they belong to.

Legend:
S. aureus ATCC 29213 [1] = experiment: Broth microdilution MIC (Example 12), ATCC QC organism; conditions: ATCC QC organism (Table 102)
S. aureus ATCC 29213 [2] = conditions: CLSI established QC range; cited from earlier work
[3] = test system: vancomycin-intermediate Staphylococcus aureus (VISA); experiment: Broth microdilution MIC (Example 12); type: cell-based
[4] = test system: C. parapsilosis ATCC 22019; experiment: Antifungal broth microdilution (Example 13), QC organism; type: cell-based, Candida parapsilosis; conditions: 24 hr, comparators, single value
[5] = test system: C. parapsilosis ATCC 22019; conditions: C. parapsilosis ATCC 22019, CLSI established QC range, cited from earlier work
Aspergillus spp. = experiment: Antifungal broth microdilution (Example 13); type: cell-based, A. niger, A. terreus, A. fumigatus, A. flavus
Candida spp. [6] = conditions: C. parapsilosis MMX 2323 (ATCC 22019), cited from earlier work
E. coli ATCC 25922 = experiment: MIC control strain; conditions: QC organism, Example 13
S. aureus ATCC 29213 [7] = experiment: MIC control strain; conditions: QC organism, Example 13
Candida krusei [8] = experiment: Antifungal broth microdilution (Example 13); type: cell-based; conditions: C. krusei ATCC 6258, comparators, single value
fungal pathogens = experiment: Antifungal activity, NIH/NIAID sponsored study; type: cell-based; conditions: 50% endpoint
Candida krusei [9] = conditions: C. krusei ATCC 6258, CLSI established QC range, cited from earlier work
Candida spp. [10] = experiment: Broth microdilution MIC (Example 11); type: cell-based, C. parapsilosis, C. albicans, C. glabrata, C. tropicalis; conditions: read-out: MIC
[11] = test system: Gram-positive aerobic bacteria (S. aureus, MRSA, CA-MRSA); experiment: MIC90 against 150 clinical isolates of Gram-positive aerobic bacteria; type: cell-based; conditions: S. aureus (50 isolates)

Compound: CCC[C@@H]1C[C@@H](C(=O)N[C@@H]([C@H]2O[C@H](SC)[C@H](O)[C@@H](O)[C@H]2O)[C@H](C)Cl)N(C)C1 [CLI]
MIC (S. aureus ATCC 29213 [1]): 0.25 µg/mL (≈ 0.588 µM)
QC range of MIC (S. aureus ATCC 29213 [2]): (0.06-0.25) μg/mL
MIC ([3]; S. aureus NRS 1 (hVISA)): >8 µg/mL
MIC ([3]; S. aureus NRS 2): >8 µg/mL
MIC ([3]; S. aureus NRS 3): >8 µg/mL
MIC ([3]; S. aureus NRS 4): >8 µg/mL
MIC ([3]; S. aureus NRS 13): 0.06 µg/mL (≈ 0.141 µM)
MIC ([3]; S. aureus NRS 18): >8 µg/mL
MIC ([3]; S. aureus NRS 22): >8 µg/mL
MIC ([3]; S. aureus NRS 24 (hVISA)): >8 µg/mL
MIC ([3]; S. aureus NRS 27): >8 µg/mL

Compound: OC(Cn1cncn1)(Cn1cncn1)c1ccc(F)cc1F [Fluconazole]
MIC 24 hr [4]: 1 µg/mL (≈ 3.27 µM)
QC Range 24 hr ([5]; 24 hr): 0.5-4
QC Range 48 hr ([5]; 48 hr): 1-4
MIC 24 hr (Aspergillus spp.; A. flavus ATCC 204304): > 64 µg/mL
MIC 48 hr (Aspergillus spp.; A. flavus ATCC 204304): > 64 µg/mL
MIC 24 hr (Aspergillus spp.; A. fumigatus ATCC MYA-3626): > 64 µg/mL
MIC 48 hr (Aspergillus spp.; A. fumigatus ATCC MYA-3626): > 64 µg/mL
CLSI QC range of MIC (Candida spp. [6]; 24 hr): 0.5 to 4 µg/mL
CLSI QC range of MIC (Candida spp. [6]; 48 hr): 1 to 4 µg/mL
MIC 24 hr (E. coli ATCC 25922): >64
MIC 24 hr (S. aureus ATCC 29213 [7]): >64
MIC 24 hr (Candida krusei [8]; 24 hr): 16 µg/mL (≈ 52.2 µM)
MIC 48 hr (Candida krusei [8]; 48 hr): 32 µg/mL (≈ 104 µM)
MIC50 (fungal pathogens; Candida albicans, read-out: Antifungal activity, MIC 50%, C. albicans CA1): ≤ 0.125 µg/mL
MIC50 (fungal pathogens; Candida albicans, read-out: Antifungal activity, MIC 50%, C. albicans CA2): ≤ 0.125 µg/mL
MIC50 (fungal pathogens; Candida albicans, read-out: Antifungal activity, MIC 50%, C. albicans CA3): > 64 µg/mL
MIC50 (fungal pathogens; Candidozyma auris, read-out: Antifungal activity, MIC 50%, C. auris Cau1): > 64 µg/mL
MIC50 (fungal pathogens; Candidozyma auris, read-out: Antifungal activity, MIC 50%, C. auris Cau2): 2 µg/mL (≈ 6.53 µM)
MIC50 (fungal pathogens; Candidozyma auris, read-out: Antifungal activity, MIC 50%, C. auris Cau3): > 64 µg/mL
MIC50 (fungal pathogens; Cryptococcus neoformans, read-out: Antifungal activity, MIC 50%, C. neoformans CN1): 64 µg/mL (≈ 209 µM)
MIC50 (fungal pathogens; Cryptococcus neoformans, read-out: Antifungal activity, MIC 50%, C. neoformans CN2): 64 µg/mL (≈ 209 µM)
MIC50 (fungal pathogens; Cryptococcus neoformans, read-out: Antifungal activity, MIC 50%, C. neoformans CN3): 2 µg/mL (≈ 6.53 µM)
MIC50 (fungal pathogens; Lodderomyces parapsilosis, ATCC22019, read-out: Antifungal activity, MIC 50%, C. parapsilosis ATCC22019): 1 µg/mL (≈ 3.27 µM)
MIC50 (fungal pathogens; Pichia kudriavzevii, ATCC6258, read-out: Antifungal activity, MIC 50%, C. krusei ATCC6258): 16 µg/mL (≈ 52.2 µM)
QC Range 24 hr (Candida krusei [9]; 24 hr): 8-64
QC Range 48 hr (Candida krusei [9]; 48 hr): 16-128
MIC (Candida spp. [10]; 24 h, C. albicans MMX 7039, Sensitive, incubation 24 hr): 0.5 µg/mL (≈ 1.63 µM)
MIC (Candida spp. [10]; 24 h, C. glabrata MMX 7318, FLU^R, incubation 24 hr): > 64 µg/mL
MIC (Candida spp. [10]; 24 h, C. parapsilosis MMX 2323 (ATCC 22019), QC, incubation 24 hr): 2 µg/mL (≈ 6.53 µM)
MIC (Candida spp. [10]; 24 h, C. parapsilosis MMX 7370, FLU^R, incubation 24 hr): 32 µg/mL (≈ 104 µM)
MIC (Candida spp. [10]; 24 h, C. tropicalis MMX 7247, FLU^R, incubation 24 hr): 64 µg/mL (≈ 209 µM)
MIC (Candida spp. [10]; 24 h, C. tropicalis MMX 7360, FLU^R, incubation 24 hr): 64 µg/mL (≈ 209 µM)
MIC (Candida spp. [10]; 48 h, C. albicans MMX 7039, Sensitive, incubation 48 hr): 0.5 µg/mL (≈ 1.63 µM)
MIC (Candida spp. [10]; 48 h, C. albicans MMX 7055, Sensitive, incubation 48 hr): 0.5 µg/mL (≈ 1.63 µM)
MIC (Candida spp. [10]; 48 h, C. glabrata MMX 7318, FLU^R, incubation 48 hr): > 64 µg/mL
MIC (Candida spp. [10]; 48 h, C. glabrata miX 7086, FLU^R, incubation 48 hr): 64 µg/mL (≈ 209 µM)
MIC (Candida spp. [10]; 48 h, C. parapsilosis MMX 2323 (ATCC 22019), QC, incubation 48 hr): 2 µg/mL (≈ 6.53 µM)
MIC (Candida spp. [10]; 48 h, C. parapsilosis MMX 7555, FLU^R, incubation 48 hr): 64 µg/mL (≈ 209 µM)
MIC (Candida spp. [10]; 48 h, C. tropicalis MMX 7247, FLU^R, incubation 48 hr): > 64 µg/mL
MIC (Candida spp. [10]; 48 h, C. tropicalis MMX 7248, FLU^R, incubation 48 hr): > 64 µg/mL
MIC (Candida spp. [10]; 48 h, C. tropicalis MMX 7360, FLU^R, incubation 48 hr): > 64 µg/mL

MIC (S. aureus ATCC 29213 [1]): 4 µg/mL (≈ 11.9 µM)
MIC90 ([11]; CA-MRSA): 4 µg/mL (≈ 11.9 µM)
MIC90 ([11]; MRSA): 4 µg/mL (≈ 11.9 µM)
MIC90 ([11]; MSSA): 4 µg/mL (≈ 11.9 µM)
MIC ([3]; S. aureus NRS 1 (hVISA)): 1 µg/mL (≈ 2.96 µM)
MIC ([3]; S. aureus NRS 2): 4 µg/mL (≈ 11.9 µM)
MIC ([3]; S. aureus NRS 3): 1 µg/mL (≈ 2.96 µM)
MIC ([3]; S. aureus NRS 4): 1 µg/mL (≈ 2.96 µM)
MIC ([3]; S. aureus NRS 13): 2 µg/mL (≈ 5.93 µM)
MIC ([3]; S. aureus NRS 18): 1 µg/mL (≈ 2.96 µM)
MIC ([3]; S. aureus NRS 22): 1 µg/mL (≈ 2.96 µM)
MIC ([3]; S. aureus NRS 24 (hVISA)): 2 µg/mL (≈ 5.93 µM)
MIC ([3]; S. aureus NRS 27): 2 µg/mL (≈ 5.93 µM)
Compound: CC(=O)NC[C@H]1CN(c2ccc(N3CCOCC3)c(F)c2)C(=O)O1 [LZD]
QC range of MIC (S. aureus ATCC 29213 [2]): (1-4) μg/mL

Compound: CN[C@H](CC(C)C)C(=O)N[C@H]1C(=O)N[C@@H](CC(N)=O)C(=O)N[C@H]2C(=O)N[C@H]3C(=O)N[C@H](C(=O)N[C@H](C(=O)O)c4cc(O)cc(O)c4-c4cc3ccc4O)[C@H](O)c3ccc(c(Cl)c3)Oc3cc2cc(c3O[C@@H]2O[C@H](CO)[C@@H](O)[C@H](O)[C@H]2O[C@H]2C[C@](C)(N)[C@H](O)[C@H](C)O2)Oc2ccc(cc2Cl)[C@H]1O [VAN]
MIC (S. aureus ATCC 29213 [1]): 0.5 µg/mL (≈ 0.345 µM)
QC range of MIC (S. aureus ATCC 29213 [2]): (0.5-2) μg/mL
MIC90 ([11]; CA-MRSA): 1 µg/mL (≈ 0.69 µM)
MIC90 ([11]; MRSA): 2 µg/mL (≈ 1.38 µM)
MIC90 ([11]; MSSA): 1 µg/mL (≈ 0.69 µM)
MIC ([3]; S. aureus NRS 1 (hVISA)): 4 µg/mL (≈ 2.76 µM)
MIC ([3]; S. aureus NRS 2): 0.5 µg/mL (≈ 0.345 µM)
MIC ([3]; S. aureus NRS 3): 8 µg/mL (≈ 5.52 µM)
MIC ([3]; S. aureus NRS 4): 4 µg/mL (≈ 2.76 µM)
MIC ([3]; S. aureus NRS 13): 2 µg/mL (≈ 1.38 µM)
MIC ([3]; S. aureus NRS 18): 4 µg/mL (≈ 2.76 µM)
MIC ([3]; S. aureus NRS 22): 4 µg/mL (≈ 2.76 µM)
MIC ([3]; S. aureus NRS 24 (hVISA)): 2 µg/mL (≈ 1.38 µM)
MIC ([3]; S. aureus NRS 27): 2 µg/mL (≈ 1.38 µM)
